Experimental data as given in patent publication US20130203668A1, “PHARMACEUTICAL COMPOSITION COMPRISING ANTIPLATELET AGENTS AND AN ERYTHROPOIESIS STIMULATING AGENT” (CADILA HEALTHCARE LIMITED, priority 2010, published 2013).

Experiments:
[1] = system: platelet rich plasma (PRP); test: Effect of clopidogrel and aspirin on rHuEPO-induced platelet reactivity, ex vivo platelet aggregation; format: in vivo, male Wistar rats; settings: for Effect on platelet aggregatory response in rHuEPO treated rats (in words): rHuEPO (25 μg/kg, S.C.) treated rats, clopidogrel 2.5 mg/kg p.o., aspirin 75 mg/kg p.o.; for % platelet aggregation: rHuEPO 25 μg/kg s.c., Clopidogrel 2.5 mg/kg p.o., Aspirin 75 mg/kg p.o.
Method: (§1) Six to eight week old male Wistar rats used and the methods and procedures described here have been reviewed and approved by the Institutional Animal Ethics Committee (IAEC). Wistar male rats were divided in groups [each group containing 6 animals (n=6)]. Control animal received vehicle only (0.9% w/v NaCl normal saline), treatment groups received three consecutive doses of Recombinant Human Erythropoietin (25 and 50 μg/kg, s.c.) at an interval of 24 hour. Blood collection was performed at 48 hour after the last injection of Erythropoietin in citrated tubes. Platelet rich plasma (PRP) was separated. Determination of ex-vivo platelet aggregation was performed by using 1) ADP as aggregation inducing agent 2) Arachidonic acid as aggregation inducing agent 3) Thrombin as aggregation inducing agent and 4) Collagen as aggregation inducing agent. Platelet aggregation was performed by turbidometric method using high through put 96-well plate. Optical density was measured at 405 nm by Spectra Max plate reader. […] Increase in platelet aggregatory response meaning increase in platelet reactivity when same concentration of aggregating agent is used.
Six to eight week old male Wistar rats were divided in groups [each group containing 6 animals (n=6)]. Control animal received vehicle only (0.9% w/v NaCl normal saline), treatment groups received three consecutive doses of Recombinant Human Erythropoietin (25 μg/kg, s.c.) at an interval of 24 hour. Aspirin (75 mg/kg p.o.), and Clopidogrel (2.5 mg/kg, p.o.) were dosed individually and in combination with each other to respective groups at 48 hour after the last injection of erythropoietin. Blood collection was performed after 2 hours of antiplatelet treatment. Platelet rich plasma (PRP) was separated. Determination of ex-vivo platelet aggregation was performed by using 1) ADP as aggregation inducing agent 2) Arachidonic acid as aggregation inducing agent 3) Thrombin as aggregation inducing agent and 4) Collagen as aggregation inducing agent.

[2] = system: platelet rich plasma (PRP); test: Ex vivo ADP-induced platelet aggregation in 5/6 nephrectomized rats (chronic kidney disease model); parameters: species or system male Wistar rats; settings: i.v. 3 times a week for 4 weeks; for Platelet aggregation (%) Average: 2.5 μM ADP, 5/6 nephrectomized rats, EPO 500 IU/kg, Clopi 10 mg/kg
Source text: (§2) Six to eight week old male Wistar rats used and the methods and procedures described here have been reviewed and approved by the Institutional Animal Ethics Committee (IAEC). We used human therapeutic dose of rHuEPO in rats and same frequency of administration as in humans (Kirkeby A et al., Thromb Haemost, 2008; 99:720-728). A 5/6 nephrectomy has been performed on male wistar rats (Toba H et al., European Journal of Pharmacology 656, 2011, 81-87) and treatment has been started after one month of nephrectomy.
(§3) The rats were divided into 5 groups (n=6): 1) a control group, which received a sham operation (SHAM control); 2) a 5/6 nephrectomized group (NPX), removed the upper and lower poles of the left kidney and after one week the entire right kidney under anesthesia (NPX vehicle); 3) a 5/6 nephrectomy+rHuEPO group, nephrectomized and injected with rHuEPO at 500 IU/kg 3 times a week intravenously (i.v.) for 4 weeks (NPX+EPO); 4) a 5/6 nephrectomized+rHuEPO+clopidogrel group, nephrectomized and administered with rHuEPO (500 IU/kg)+clopidogrel (10 mg/kg) every 3 times a week intravenously (i.v.) for 4 weeks. 5) a 5/6 nephrectomized+clopidogrel group, nephrectomized and administered with rHuEPO (500 IU/kg)+clopidogrel (10 mg/kg) every 3 times a week intravenously (i.v.) for 4 weeks.
(§4) After 4 weeks of treatment, blood samples were collected via retro-orbital route in tubes containing 3.8% tri-sodium citrate for the collection of platelet rich plasma (PRP) for ADP-induced platelet aggregation studies. Blood samples were also collected for hematological analysis in tubes containing 5% EDTA. Serum samples were used for measurement of various kidney biomarkers such as creatinine, urea, uric acid, blood urea nitrogen and total protein.
Increase in platelet aggregatory response meaning increase in platelet reactivity when same concentration of aggregating agent is used.

[3] = Hematological parameters in 5/6 nephrectomized rats (chronic kidney disease model); format: in vivo, male Wistar rats; settings: i.v. 3 times a week for 4 weeks; for Hematocrit (%) Average / Hemoglobin (g/dL) Average / RBC count (10^6/μL) Average: 5/6 nephrectomized rats, EPO 500 IU/kg, Clopi 10 mg/kg
Source text: as §2, §3, §4

[4] = system: platelet rich plasma (PRP); test: Effect of rHuEPO on platelet reactivity, ex vivo platelet aggregation (ADP, arachidonic acid, thrombin, collagen); format: in vivo, male Wistar rats; settings: for % platelet aggregation: s.c. treated rats
Method: as §1

[5] = Bleeding time, tail transaction test; format: in vivo, male Wistar rats; settings: rHuEPO 25 μg/kg s.c., Clopidogrel 2.5 mpk, Aspirin 75 mpk; Wistar rats
Method: Six to eight week old male Wistar rats were divided in groups [each group containing 6 animals (n=6)]. Control animal received vehicle only (0.9% w/v NaCl normal saline), treatment groups received three consecutive doses of Recombinant Human Erythropoietin (25 μg/kg, S.C.) at an interval of 24 hour. Aspirin (75 mg/kg p.o.), and Clopidogrel (2.5 mg/kg, p.o.) individually and in combination with each other were dosed to respective groups at 48 hour after the last injection of Erythropoietin. Bleeding time experiment using tail transaction test was performed.

[6] = Kidney biomarkers in serum of 5/6 nephrectomized rats (chronic kidney disease model); format: in vivo, male Wistar rats; settings: i.v. 3 times a week for 4 weeks
Source text: as §2, §3, §4
There was increase in the serum creatinine, serum urea, serum uric acid, blood urea nitrogen and decrease in serum total protein in nephrectomized animals. […] There was improvement in the kidney function when combination of rHuEPO and antiplatelet agent has been given every 3 times a week intravenously (i.v.) for 4 weeks in nephrectomized rats (FIGS. 6a, 6b, 6c, 6d and 6e).

[7] = 5/6 nephrectomized rats, EPO 500 IU/kg, Clopi 10 mg/kg

COC(=O)[C@H](c1ccccc1Cl)N1CCc2sccc2C1 [Clopidogrel, reference compound]
Effect on platelet aggregatory response in rHuEPO treated rats (in words) [1]: platelet aggregatory response is normalized
Platelet aggregation (%) Average [2]: −2%
Hematocrit (%) Average [3]: 46.07%
Hemoglobin (g/dL) Average [3]: 14.77 g/dL
RBC count (10^6/μL) Average [3]: 8.52 10^6/μL

Recombinant Human Erythropoietin [rHuEPO]
% platelet aggregation ([4]; ADP (1.25 μM), rHuEPO 25 μg/kg, 3 doses, blood 48 h after last dose): 59.1 ± 3.2%
% platelet aggregation ([4]; ADP (1.25 μM), rHuEPO 50 μg/kg, 3 doses, blood 48 h after last dose): 66.4 ± 4.5%
% platelet aggregation ([4]; Arachidonic acid (150 μM), rHuEPO 25 μg/kg): 50.6 ± 3.1%
% platelet aggregation ([4]; Arachidonic acid (150 μM), rHuEPO 50 μg/kg): 61.3 ± 3.4%
% platelet aggregation ([4]; Collagen (0.25 μg/ml), rHuEPO 25 μg/kg): 30.5 ± 2.0%
% platelet aggregation ([4]; Collagen (0.25 μg/ml), rHuEPO 50 μg/kg): 45.9 ± 3.2%
% platelet aggregation ([4]; Collagen (0.5 μg/ml), rHuEPO 25 μg/kg): 56.9 ± 1.7%
% platelet aggregation ([4]; Collagen (0.5 μg/ml), rHuEPO 50 μg/kg): 65.9 ± 1.7%
% platelet aggregation ([4]; Thrombin (0.0125 IU/ml), rHuEPO 25 μg/kg): 37.7 ± 3.0%
% platelet aggregation ([4]; Thrombin (0.0125 IU/ml), rHuEPO 50 μg/kg): 59.5 ± 4.4%
Effect on platelet aggregation (in words) ([4]; rHuEPO 25 and 50 μg/kg, s.c., constant concentration of aggregating agents): causes increase in platelet aggregation
% platelet aggregation ([1]; ADP (1.25 μM), blood 2 h after antiplatelet treatment): 59.5 ± 1.4%
% platelet aggregation ([1]; Arachidonic acid (150 μM)): 44.4 ± 2.5%
% platelet aggregation ([1]; Collagen (0.25 μg/ml)): 60.03 ± 1.9%
% platelet aggregation ([1]; Thrombin (0.025 IU/ml)): 70.8 ± 1.0%
Bleeding Time [5]: 165 ± 28.1 s
Platelet aggregation (%) Average [2]: 55%
Effect on platelet aggregatory response in nephrectomized rats (in words) ([2]; ADP, rHuEPO 500 IU/kg, clopidogrel 10 mg/kg): platelet aggregation increases
Hematocrit (%) Average [3]: 62.3%
Hemoglobin (g/dL) Average [3]: 20.4 g/dL
RBC count (10^6/μL) Average [3]: 11.13 10^6/μL
Effect on hematological parameters (in words) ([3]; nephrectomized rats): increase in RBC count, hemoglobin and hematocrit
Blood urea nitrogen mg/dL Average [6, 7]: 64.33 mg/dL
Serum creatinine mg/dL Average [6, 7]: 0.74 mg/dL
Serum urea mg/dL Average [6, 7]: 134.33 mg/dL
Serum uric acid mg/dL Average [6, 7]: 1.4 mg/dL
Total protein g/dL Average [6, 7]: 6.13 g/dL
Effect on kidney function / kidney biomarkers (in words) ([6]; nephrectomized rats): further increase in the serum creatinine, serum urea, serum uric acid, blood urea nitrogen

CC(=O)Oc1ccccc1C(=O)O [Aspirin, reference compound]
Effect on platelet aggregatory response in rHuEPO treated rats (in words) [1]: further normalizes the hyper reactive platelets
